According to US20250319096A1, “METHODS AND COMPOUNDS FOR TREATING INFLAMMATION” ([…] INCORPERATED, priority 2021, published 2025):
Read-outs that look alike come from different tables or passages of the source.

Assays:
GABAA receptors [1] = settings: literature value, ref [37]; read-out: reported IC50 (GABAAR binding); cited from earlier work
GABAA receptors [2] = assay: GABAA receptor binding, [3H]-flunitrazepam displacement on rat brain membranes; settings: n=6, read-out: GABAAR binding (IC50)
Method: Rat brain membranes are prepared from frozen tissue that was thawed on ice, homogenized on ice in 10 volumes of cold lysis buffer (50 mM Tris HCl, pH 7.4, containing protease inhibitor cocktail from Roche) using a Polytron homogenizer (6 pulses and 10 seconds per pulse). The homogenate is centrifuged at 1,000×g for 10 min at 4° C. to obtain supernatant. The supernatant is then centrifuged at 40,000×g for 20 min, and then the resulting supernatant is decanted and replaced with the same ice-cold lysis buffer. Two or three additional rounds of homogenization-centrifugation are performed to ensure thorough homogenization and also to wash out endogenous ligands. The final pellet is resuspended in the same buffer and homogenized one last time. The rat brain suspension is diluted in buffer (50 mM Tris HCl, 2.5 mM CaCl2), pH 7.4), followed by the addition of [3H]-flunitrazepam (0.6-4.0 nM in DMSO) and PI320 or PI310 in DMSO at different concentrations to reach a final of volume of 125 ul per well. GABAAR subtypes that bind flunitrazepam consist of α1-3,5,6β1-3γ1-3/δ GABAARs. Relative expression of GABAARs in the brain consist of 43% α1β2γ2, 15% α2β3γ2+8% α2βγ1, 10% α3β3γ2, 6% α4βγ/δ, 4% α5β3γ2, and 4% α6β2γ2/δ. […]
Total binding and nonspecific binding are determined with reference compound clonazepam. […] Scintillation cocktail is then melted onto the microwave-dried filters on a hot plate and radioactivity counted in a Microbeta counter. The data (n=6) are analyzed by nonlinear regression.
GABAA receptor binding: Rat brain membranes were prepared from frozen tissue that was thawed on ice and homogenized on ice in 10 volumes of cold lysis buffer (50 mM Tris HCl, pH 7.4, containing protease inhibitor cocktail; Roche) using a Polytron homogenizer (6 pulses and 10 seconds per pulse). […] Total binding and nonspecific binding were determined with reference compound clonazepam. […] Scintillation cocktail was then melted onto the microwave-dried filters on a hot plate and radioactivity counted in a Microbeta counter. The data (n=6) were analyzed by nonlinear regression.

[3] = tested on: C57BL/6 mouse bladder strips with intact mucosa; assay: Functional analysis in overactive bladder model, carbachol-contracted bladder strips; set-up: species or system mice; settings: 10 uM carbachol, cumulatively increasing concentrations 1-100 uM
Method: C57BL/6 female mice (12 weeks, Harlan UK, Ltd) are euthanized by cervical dislocation. The bladder is removed after a midline laparotomy, the neck and trigone region cut away and the dome laid out as a sheet after an anterior wall incision. Strips with intact mucosa (5-7 mm length, 1-2 mm diameter) are dissected and tied in a horizontal trough between a fixed hook and an isometric force transducer. Preparations are superfused (3 ml·min−1) at 36° C. with Tyrode's solution. PI320 or DMSO vehicle are added to the superfusate and their effects on tension measured.
Unstimulated preparations are allowed to equilibrate under tension (20 mN) until a stable base-line is recorded. The preparation is exposed to 10 µM carbachol and peak and steady-state tension recorded. In the continued presence of carbachol the preparation is also exposed to P1320 in cumulatively increasing concentrations (1, 3, 10, […], 100 uM) until a new steady-state is achieved at each concentration. For vehicle controls DMSO is added in rising concentrations (0.01, 0.03, 0.1, 0.3, 1.0% (v/v)) after a steady-state contraction is achieved with carbachol.
Data are mean±SD; differences between multiple data sets were tested with repeated measures two-way ANOVA and Tukey post hoc tests.

[4] = tested on: Swiss Webster mice with 3% Dextran sodium sulfate (DSS) induced ulcerative colitis; assay: Inflammatory bowel disease model, 3% DSS induced ulcerative colitis, bodyweight; assay type: in vivo; settings: 100 mg/kg daily in peanut butter, 3% DSS water
Method: (§1) Ten (10) week old female Swiss Webster mice were offered 3% Dextran sodium sulfate (DSS) water to induce ulcerative colitis. Group 1 (n=8) received daily peanut butter (200 mg) and group 2 (n=8) received 100 mg/kg PI320 in peanut butter. The animals were weighted daily. See, FIGS. 1A and 1B.

[5] = tested on: Swiss Webster mice, MC903 challenge; assay: MC903 mouse AD model, ear thickness; assay type: in vivo; settings: 2 nmol topically on both ears, third week after MC903, p≤0.05 / p≤0.01
From the text: An established mouse model of AD is used to evaluate the efficacy of PI320 in reducing ear thickness following MC903 challenge (for background on the model see: J Invest Dermatol 138, 2606-2616 [28]; Proc Natl Acad Sci USA, 103, 11736-11741 [29]; Sci Transl Med, 5, 170ra116 [30]; J Invest Dermatol, 138, 1555-1563 [31]). Ear thickness is used as a measure of inflammation caused by the chemical irritant.
Briefly, commercially sourced female Swiss Webster mice (Charles River Laboratory, Wilmington, MA) at approximately seven weeks of age are used. Sixteen mice are housed under 7:00 AM-7:00 PM 12 h light cycle and administered 2 nmol MC903 on each ear on Monday, Wednesday and Friday for two weeks. The ear thickness increased from 0.3 mm to 0.7 mm during that time. During the third week, a group of eight mice were administered 2 nmol of PI320 topically on both ears (10 ul of a 100 uM solution in ethanol on each side of both ears). The control group received vehicle ethanol. Ear thickness is measured using calipers. […] See, FIG. 4.

[6] = tested on: colon MPO activity (Myeloperoxidase); assay: MPO assay on whole colon homogenates of DSS mice; assay type: in vivo; settings: 100 mg/kg daily in peanut butter, 3% DSS water
Method: as §1
MPO assay: Whole colons were homogenized in phosphate buffer and centrifuge at 10,000 rpm at 4° C. from 10 min. The protein concentration supernatant was determined with a BCA assay and adjusted to 200 μg/ml with the addition of phosphate buffer. A daily standard solution for the hydrogen peroxide solution was prepared to a concentration of 0.0024% from a 35% v/v stock. The phosphate buffer that was prepared for the BCA assay was utilized for the dilution step of this assay. O-dianisidine dihydrogen chloride was prepared at a concentration of 167 μg/mL in phosphate buffer and sonicated for 30 min to dissolve in the buffer. 8 µL of protein solution was transferred to a 384 well plate containing 62 μL of the o-dianisidine solution. The reaction is initiated with the addition of 10 μL of the hydrogen peroxide solution prepared above. […] The product of this reaction shifts the absorbance to the λmax to 460 nm. The plate is then measured over a 15 min period in the plate reader in 30 sec intervals. […]

[7] = tested on: mice with INFγ/LPS induced lung inflammation; assay: Steroid resistant mouse asthma model (INFγ/LPS), airway hyperresponsiveness sRaw after methacholine; assay type: in vivo; settings: for reduction of AHR (sRAW) versus vehicle control: nebulized 7.2 mg/kg, prior to second and third methacholine application, p≤0.005
Method: Female A/J mice are purchased from Jackson Laboratory (Bar Harbor, ME) and female Swiss Webster mice are purchased from Charles River Laboratory (Wilmington, MA). Animals are given ad libitum access to food and water. Test drugs are prepared for nebulization as follows: a 3.0 mg/ml solution of albuterol (Millipore Sigma) is prepared in phosphate buffered saline (137 mM NaCl, 2.7 mM KCl, 10 mM Na2HPO4, and 1.8 mM KH2PO4) and PI320 is prepared as 3.2 mg/ml solution in water with 0.17% Tween-20. Airway hyperresponsiveness measurements, sRaw, are obtained using a Buxco FinePointe Non-Invasive Airway Mechanics instrument (DSI, St. Paul, MN) as described previously (ACS Pharmacol Transl Sci 3, 1381-1390).
Efficacy of control drug (albuterol) and PI320 are determined by reduction of sRAW in mice compared to vehicle treated control mice. Here, mouse lung inflammation is induced with INFγ and bacterial lipopolysaccharide (LPS) via intratracheal installation. Elevated levels of IFNγ in the lung are observed for neutrophilic asthma patients, which respond poorly to steroid treatment (Eur Respir J 11, 312-316). One contributing factor is the impaired nuclear translocation of the liganded glucocorticoid receptor in pulmonary macrophages (Am J Respir Crit Care Med 191, 54-62). LPS simulates a microbial infection leading to macrophage-mediated inflammatory response (J Immunol 185, 4401-4409).
The tracheal installation of INFγ/LPS increases airway hyper-responsiveness to an inhaled challenge agent as measured by sRAW, which is based on the breathing volume and frequency. The challenge agent, methacholine, is administered three times over 24 minutes resulting in sRAW of approximately 8.0 cmH2O*sec.

C[C@H]1N=C(c2ccccc2F)c2cc(Br)ccc2-n2cnc(C(=O)O)c21 [MIDD0301, (R)-8-bromo-6-(2-fluorophenyl)-4-methyl-4H-benzo[f]imidazo[1,5-a][1,4]diazepine-3-carboxylic acid]
IC50 (GABAA receptors [1]): 0.072 µM

COCCOCCNC(=O)C1N=CN2C3=C(CC(Br)C=C3)C(c3ccccc3F)=N[C@H](C)C12 (stereo partly drawn) [PI350]
IC50 (GABAA receptors [2]): 0.058 µM

COCCOCCOCCOCCOCCNC(=O)c1ncn2c1[C@@H](C)N=C(c1ccccc1F)c1cc(Br)ccc1-2 [PI320, (R)-8-bromo-6-(2-fluorophenyl)-N-(2,5,8,11,14-pentaoxahexadecan-16-yl)-4-methyl-4H-benzo[f]imidazo[1,5-a][1,4]diazepine-3-carboxamide]
IC50 (GABAA receptors [2]): 0.242 µM | contraction force of bladder strips versus DMSO controls [3]: concentration-dependent reduction of force | change of bodyweight in comparison to the initial weight ([4]; days 6 and 7): small drop in weight | change of bodyweight ([4]; from day 2): regained weight on day 2 | ear thickness versus vehicle control [5]: significantly reduces ear thickness | colon Myeloperoxidase (MPO) level versus vehicle group [6]: greatly reduced | reduction of methacholine induced airway hyper-responsiveness compared with albuterol ([7]; administered via inhalation): at least as effective as albuterol | reduction of AHR (sRAW) versus vehicle control [7]: statistically significant reductions

COCCOCCOCCOCCNC(=O)C1N=CN2C3=C(CC(Br)C=C3)C(c3ccccc3F)=N[C@H](C)C12 (stereo partly drawn) [PI352]
IC50 (GABAA receptors [2]): 0.038 µM

CC(C)(C)NCC(O)c1ccc(O)c(CO)c1 (stereo not drawn) [albuterol, reference compound]
reduction of AHR (sRAW) versus vehicle control [7]: statistically significant reductions
